This is an account of results in patent US20120172339A1, “ANGIOGENIC RESORCINOL DERIVATIVES” (Northeastern University, priority 2009, published 2012).

Structures are written as SMILES. Read-outs that look alike come from different tables or passages of the source.

Series [1] concerns the target CB2 cannabinoid receptor (Homo sapiens, UniProt P34972). Nature of the series: CB2 receptor binding affinity. As for the experimental part: (§1) Some disclosed compounds were tested for CB1 and CB2 receptors binding affinity (Table 5). As used herein “binding affinity” is represented by the Ki value. The Ki value is the affinity constant and describes the affinity of the compound for the receptor. […] A detailed description of the methods used to test “binding affinity” of compounds is given in Makriyannis, et al., US 2007, 0135388 and in Papahatjis, et al. J. Med. Chem. (2007) 4048, the content of each of which is hereby incorporated by reference.

Series [2] addresses CB1 cannabinoid receptor (Homo sapiens, UniProt P21554). The series can be described thus: CB1 receptor binding affinity. As for the experimental part: as §1
The test system of series [3] is CB1-KO-HUVEC cells. The series can be described thus: MMP (matrix metalloproteinase) activity in CB1-KO-HUVEC. In kind it is cell-based, human. To be noted: FIGS. 7 and 8, read-out: EC50 for induction of MMP activity. From the text:
For aspects disclosed herein, promotion of angiogenic responses under in vitro and ex vivo conditions as well as increasing in MMP (matrix metalloproteinase) activity, correlates well with the ability of anandamide and its synthetic analog (R)-methanandamide to bind to and modulate the putative “non CB1/non CB2 anandamide receptor”. Thus, the compounds described herein where tested using in vitro angiogenesis assays (cord formation by endothelial cells in extracellular matrix mimicking matrigel), ex vivo angiogenesis assay (sprouting or blood capillary formation under ex vivo conditions) as well as for MMP activity in CB1 receptor knock out human umbilical vein endothelial cells (HUVEC) (CB1-KO-HUVEC).
Some disclosed compounds were tested using in vitro angiogenesis assays (cord formation by endothelial cells in extracellular matrix mimicking matrigel, Table 4), ex vivo angiogenesis assay (sprouting or blood capillary formation under ex vivo conditions, Table 4) as well as for MMP (matrix metalloproteinase) activity in CB1 receptor knock out human umbilical vein endothelial cells (HUVEC) (CB1-KO-HUVEC, Figures A and B). Stimulation of angiogenic responses under in vitro and ex vivo conditions as well as increasing in MMP activity, correlates well with the ability of the compound to bind to and modulate the putative “non CB1/non CB2 anandamide receptor”. […] A detailed description of the angiogenesis and MMP activity assays is given in Mukhopadhyay (US 2007, 0244200, and Balas, et al., J. Med. Chem. (2009) ASAP the content of each of which is hereby incorporated by reference.

Chain of CB1 cannabinoid receptor (P21554 whole entry): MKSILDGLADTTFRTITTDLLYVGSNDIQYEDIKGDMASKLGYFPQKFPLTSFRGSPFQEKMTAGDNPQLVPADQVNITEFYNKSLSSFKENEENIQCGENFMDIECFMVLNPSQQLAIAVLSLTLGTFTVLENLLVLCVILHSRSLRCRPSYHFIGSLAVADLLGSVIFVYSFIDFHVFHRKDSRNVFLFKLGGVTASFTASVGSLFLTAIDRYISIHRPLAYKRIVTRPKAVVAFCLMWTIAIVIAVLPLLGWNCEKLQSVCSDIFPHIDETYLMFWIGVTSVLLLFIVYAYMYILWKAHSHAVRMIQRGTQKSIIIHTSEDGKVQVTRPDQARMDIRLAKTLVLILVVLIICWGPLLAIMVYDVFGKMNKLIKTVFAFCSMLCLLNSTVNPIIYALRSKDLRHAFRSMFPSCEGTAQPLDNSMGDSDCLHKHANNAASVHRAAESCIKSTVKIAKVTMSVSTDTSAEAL
Chain of CB2 cannabinoid receptor (P34972 whole entry): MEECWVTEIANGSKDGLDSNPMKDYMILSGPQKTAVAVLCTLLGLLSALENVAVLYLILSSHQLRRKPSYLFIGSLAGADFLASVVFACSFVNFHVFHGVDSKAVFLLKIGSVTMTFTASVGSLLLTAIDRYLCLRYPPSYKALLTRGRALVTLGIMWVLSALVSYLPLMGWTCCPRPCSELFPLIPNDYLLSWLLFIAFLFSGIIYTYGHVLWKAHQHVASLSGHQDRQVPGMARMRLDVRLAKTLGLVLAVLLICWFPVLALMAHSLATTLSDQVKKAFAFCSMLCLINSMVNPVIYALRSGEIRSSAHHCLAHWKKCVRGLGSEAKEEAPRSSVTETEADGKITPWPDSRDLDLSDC

In general, Ki refers to the equilibrium dissociation constant of an inhibitor or competing ligand from its target. Regarding `C=C(C)[C@@H]1CCC(C)=C[C@H]1c1c(O)cc(CC(=O)OC)cc1O` (relative stereo) [Compound 3.14, (−)-2-[3-3,4-trans-p-Menthadien-(1,8)-yl]-5-(2-methoxy-2-oxoethyl)resorcinol], the Ki is 0.62 µM in series [1] (read-out: CB2 Receptor Ki) and 2.37 µM in series [2] (read-out: CB1 Receptor Ki).
Consider `CCCCCc1cc(O)cc(O)c1[C@@H]1C=C(C)[C@@H]2C[C@H]1C2(C)C` [Compound 12.2], for which the results for the Ki in series [1] (read-out: CB2 Receptor Ki) and in series [2] (read-out: CB1 Receptor Ki) were 19 µM and 10.1 µM, respectively.
The matching figures for `C=C(C)[C@@H]1CCC(C)=C[C@H]1c1c(O)cc(O)cc1Br` (relative stereo) [Compound 4.10, (−)-4-[3-3,4-trans-p-Menthadien-(1,8)-yl]-5-bromoresorcinol]: 13.3 µM and 7.46 µM.
The matching figures for `C=C(C)[C@@H]1CCC(C)=C[C@H]1c1c(O)cc(O)cc1CCCCBr` (relative stereo) [Compound 4.16]: 5.73 µM and 12.5 µM.
On to `CCCCCc1cc(O)cc(O)c1[C@H]1C=C(C)[C@H]2C[C@@H]1C2(C)C` [Compound 9.2, (+)-4-[(1R, 4S, 5S)-2,6,6-trimethylbicyclo[3.1.1]hept-2-en-4-yl]-5-pentyl-resorcinol], for which the Ki in series [1] (read-out: CB2 Receptor Ki) is 4.94 µM; in series [2] (read-out: CB1 Receptor Ki), 9.25 µM.
For orientation: EC50 means the concentration needed to bring the measured effect to its halfway point. Turning to `CCCCCc1cc(O)c([C@H]2C=C(C)[C@H]3C[C@@H]2C3(C)C)c(O)c1` [Compound 8.2, (+)-2-[(1R, 4S, 5S)-2,6,6-trimethylbicyclo[3.1.1]hept-2-en-4-yl]-5-pentyl-resorcinol], the EC50 in series [3] (Homo sapiens) lay within 0.05 to 0.07 µM.
As for `C=C(C)[C@@H]1CCC(C)=C[C@H]1c1c(O)cc(C)cc1O` (relative stereo) [Compound 3.1, (−)-2-[3-3,4-trans-p-Menthadien-(1,8)-yl]-5-methylresorcinol], the Ki in series [1] (read-out: CB2 Receptor Ki) worked out at 47.7 µM; in series [2] (read-out: CB1 Receptor Ki), 16.7 µM.
Turning to `C=C(C)[C@@H]1CCC(C)=C[C@H]1c1c(O)cc(O)cc1O` (relative stereo) [Compound 3.7, (−)-2-[3-3,4-trans-p-Menthadien-(1,8)-yl]-5-hydroxyresorcinol], the results for the Ki in series [1] (read-out: CB2 Receptor Ki) and in series [2] (read-out: CB1 Receptor Ki) were 41.7 µM and 21.5 µM, respectively.
For `[2H]C([2H])([2H])CCc1cc(O)cc(O)c1[C@@H]1C=C(C)CC[C@H]1C(=C)C` (relative stereo) [Compound 4.5, (−)-4-[3-3,4-trans-p-Menthadien-(1,8)-yl]-5-[3′-(^2H3)-propyl]resorcinol] the same measures were 19 µM and above 20 µM.
The term melting point denotes the temperature, or range, at which the solid turns liquid. With `C=C(C)[C@@H]1CCC(C)=C[C@H]1c1c(O)cc(O)cc1F` (relative stereo) [Compound 4.8, (−)-4-[3-3,4-trans-p-Menthadien-(1,8)-yl]-5-flouororesorcinol], the melting point is 105 to 106 °C. The Ki in series [1] (read-out: CB2 Receptor Ki) turned out to be 7.21 µM. In addition, the Ki in series [2] (read-out: CB1 Receptor Ki) stood at 4.15 µM.
Consider `C=C(C)[C@@H]1CCC(C)=C[C@H]1c1c(O)cc(O)cc1I` (relative stereo) [Compound 4.11, (−)-4-[3-3,4-trans-p-Menthadien-(1,8)-yl]-5-iodoresorcinol], for which the inhibition constant Ki is 10.5 µM in series [1] (read-out: CB2 Receptor Ki) and 13.1 µM in series [2] (read-out: CB1 Receptor Ki). Moreover, in series [3] (Homo sapiens), the concentration for a half-maximal effect (EC50) was 0.05 to 0.07 µM.
`C=C(C)[C@@H]1CCC(C)=C[C@H]1c1c(O)cc(/C=C\CCCCC)cc1O` [Compound 3.6, (−)-2-[3-3,4-trans-p-Menthadien-(1,8)-yl]-5-(1,2-cis-hepten-1-yl)resorcinol]: the EC50 in series [3] (Homo sapiens) lay within 0.05 to 0.07 µM.
`C=C(C)[C@@H]1CCC(C)=C[C@H]1c1c(O)cc(I)cc1O` (relative stereo) [Compound 3.11, (−)-2-[3-3,4-trans-p-Menthadien-(1,8)-yl]-5-iodoresorcinol] displayed a melting point of 128 to 130 °C. In series [1] (read-out: CB2 Receptor Ki), the Ki amounted to 2.19 µM. The Ki in series [2] (read-out: CB1 Receptor Ki) was 5.13 µM.
For the molecule `C=C(C)[C@@H]1CCC(C)=C[C@H]1c1c(O)cc(CC#N)cc1O` (relative stereo) [Compound 3.13, (−)-2-[3-3,4-trans-p-Menthadien-(1,8)-yl]-5-(cyanomethyl)resorcinol], the results for the Ki in series [1] (read-out: CB2 Receptor Ki) and in series [2] (read-out: CB1 Receptor Ki) were 4.2 µM and 1.44 µM, respectively.
As to `C=C(C)[C@@H]1CCC(C)=C[C@H]1c1c(O)cc(O)cc1CCCCCCC` (relative stereo) [Compound 4.3, (−)-4-[3-3,4-trans-p-Menthadien-(1,8)-yl]-5-heptylresorcinol], the inhibition constant Ki in series [1] came out at 0.398 µM; in series [2], 0.25 µM.
With `C=C(C)[C@@H]1CCC(C)=C[C@H]1c1c(O)cc(F)cc1O` (relative stereo) [Compound 3.8, (−)-2-[3-3,4-trans-p-Menthadien-(1,8)-yl]-5-flouororesorcinol], the results for the Ki in series [1] (read-out: CB2 Receptor Ki) and in series [2] (read-out: CB1 Receptor Ki) were 43.4 µM and 14.6 µM, respectively. For the same molecule, the EC50 in series [3] (Homo sapiens) lay within 0.05 to 0.07 µM.
On to `C=C(C)[C@@H]1CCC(C)=C[C@H]1c1c(O)cc(CCCCCCC)c([C@@H]2C=C(C)CC[C@H]2C(=C)C)c1O` (relative stereo) [Compound 5.3, 2,4-bis-[3-3,4-trans-p-Menthadien-(1,8)-yl]-5-heptylresorcinol], for which the Ki in series [1] (read-out: CB2 Receptor Ki) and in series [2] (read-out: CB1 Receptor Ki) was above 10 µM in each case. For the same molecule, the EC50 in series [3] (Homo sapiens) lay in the range of 0.05 to 0.07 µM.
For `[2H]C([2H])([2H])CCc1cc(O)c([C@@H]2C=C(C)CC[C@H]2C(=C)C)c(O)c1` (relative stereo) [Compound 3.5, (−)-2-[3-3,4-trans-p-Menthadien-(1,8)-yl]-5-[3′-(^2H3)-propyl]resorcinol], the Ki was found to be 2.58 µM in series [1] (read-out: CB2 Receptor Ki) and 8.39 µM in series [2] (read-out: CB1 Receptor Ki).
Take `CCCCC/C=C\C/C=C\C/C=C\C/C=C\CCCC(=O)N[C@H](C)CO` [(R)-methanandamide, reference compound]: the EC50 in series [3] was around 0.042 µM.
For `C=C(C)[C@@H]1CCC(C)=C[C@H]1c1c(O)cc(O)cc1CCCCC` (relative stereo) [Compound 4.2, (−)-4-[3-3,4-trans-p-Menthadien-(1,8)-yl]-5-pentylresorcinol, reference compound], the Ki came to 9.64 µM in series [1] and 4.78 µM in series [2].
As for `C=C(C)[C@@H]1CCC(C)=C[C@H]1c1c(O)cc(O)cc1Cl` (relative stereo) [Compound 4.9, (−)-4-[3-3,4-trans-p-Menthadien-(1,8)-yl]-5-chlororesorcinol], the melting point is 101 to 103 °C. For the same molecule, the Ki in series [1] (read-out: CB2 Receptor Ki) was found to be 4.97 µM. The Ki in series [2] (read-out: CB1 Receptor Ki) was 3.18 µM.
Regarding `C=C(C)[C@@H]1CCC(C)=C[C@H]1c1c(O)cc(CBr)cc1O` (relative stereo) [Compound 3.12, (−)-2-[3-3,4-trans-p-Menthadien-(1,8)-yl]-5-(bromomethyl)resorcinol], the Ki was 10.8 µM in series [1] (read-out: CB2 Receptor Ki) and 2.2 µM in series [2] (read-out: CB1 Receptor Ki).
The matching figures for `C=C(C)[C@@H]1CCC(C)=C[C@H]1c1c(C)cc(O)cc1O` (relative stereo) [Compound 4.1, (−)-4-[3-3,4-trans-p-Menthadien-(1,8)-yl]-5-methylresorcinol]: 31.1 µM and 10 µM.
On to `C=C(C)[C@@H]1CCC(C)=C[C@H]1c1c(O)cc(CCCCBr)cc1O` (relative stereo) [Compound 3.16, (−)-2-[3-3,4-trans-p-Menthadien-(1,8)-yl]-5-(4-bromobutyl)resorcinol], for which the inhibition constant Ki worked out at 0.059 µM in series [1] and 0.192 µM in series [2].
As to `C=C(C)[C@@H]1CCC(C)=C[C@H]1c1c(O)cc(CN=[N+]=[N-])cc1O` (relative stereo) [Compound 3.15, (−)-2-[3-3,4-trans-p-Menthadien-(1,8)-yl]-5-(azidomethyl)resorcinol], the inhibitory constant (Ki) in series [1] (read-out: CB2 Receptor Ki) was 2.03 µM; in series [2] (read-out: CB1 Receptor Ki) it was 3.56 µM. Moreover, in series [3] (Homo sapiens), the EC50 is 0.05 to 0.07 µM.
As for `C=C(C)[C@@H]1CCC(C)=C[C@H]1c1c(O)cc(O)cc1CC#N`, the melting point lay in the range of 131 to 133 °C.
In the case of `CCCCCc1cc(O)c([C@@H]2C=C(C)[C@@H]3C[C@H]2C3(C)C)c(O)c1` [Compound 11.2, (−)-2-[(1S, 4R, 5R)-2,6,6-trimethylbicyclo[3.1.1]hept-2-en-4-yl]-5-pentyl-resorcinol], the Ki in series [1] (read-out: CB2 Receptor Ki) turned out to be 0.565 µM; in series [2] (read-out: CB1 Receptor Ki) it was 0.837 µM.
Take `C=C(C)[C@@H]1CCC(C)=C[C@H]1c1c(O)cc(CCCCCCC)cc1O` (relative stereo) [Compound 3.3, (−)-2-[3-3,4-trans-p-Menthadien-(1,8)-yl]-5-heptylresorcinol]: the Ki stood at 1.42 µM in series [1] and 0.651 µM in series [2].
